The text below walks through data of patent US20250368633A1, “AZEPINE FUSED RING COMPOUND AS RIPK1 INHIBITOR AND USE THEREOF” (ARTIVILA BIOPHARMA, priority 2022, published 2025).

The subject of one experiment is U937 cells. Nature of the experiment: EC50 of necroptosis inhibition in U937 cells (TSZ-induced, CellTiter-Glo). Format: cell-based. The note with it: Homo sapiens, U-937; TSZ (hTNF-α, SM-164, Z-VAD-FMK) 20 hours; 10 concentration points; read-out: EC50 intervals of necroptosis inhibition in U937 cells. The gist of the method:
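U937 cells pretreated 15 min with compound (10-point, 1:3 series), then necroptosis induced by TSZ (hTNF-α, SM-164, Z-VAD-FMK) for 20 h at 37 °C. Viability measured as ATP by CellTiter-Glo luminescence; inhibition normalised to untreated and TSZ-only wells, EC50 from four-parameter fit.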
On the technique in general: ATP-based viability assays read luminescence as a measure of living cells.

The next experiment has as its target T1, RIPK1 kinase (Homo sapiens, UniProt Q13546).
T1 construct: purchased Promega VA7593
T1 sequence (Q13546 1-671): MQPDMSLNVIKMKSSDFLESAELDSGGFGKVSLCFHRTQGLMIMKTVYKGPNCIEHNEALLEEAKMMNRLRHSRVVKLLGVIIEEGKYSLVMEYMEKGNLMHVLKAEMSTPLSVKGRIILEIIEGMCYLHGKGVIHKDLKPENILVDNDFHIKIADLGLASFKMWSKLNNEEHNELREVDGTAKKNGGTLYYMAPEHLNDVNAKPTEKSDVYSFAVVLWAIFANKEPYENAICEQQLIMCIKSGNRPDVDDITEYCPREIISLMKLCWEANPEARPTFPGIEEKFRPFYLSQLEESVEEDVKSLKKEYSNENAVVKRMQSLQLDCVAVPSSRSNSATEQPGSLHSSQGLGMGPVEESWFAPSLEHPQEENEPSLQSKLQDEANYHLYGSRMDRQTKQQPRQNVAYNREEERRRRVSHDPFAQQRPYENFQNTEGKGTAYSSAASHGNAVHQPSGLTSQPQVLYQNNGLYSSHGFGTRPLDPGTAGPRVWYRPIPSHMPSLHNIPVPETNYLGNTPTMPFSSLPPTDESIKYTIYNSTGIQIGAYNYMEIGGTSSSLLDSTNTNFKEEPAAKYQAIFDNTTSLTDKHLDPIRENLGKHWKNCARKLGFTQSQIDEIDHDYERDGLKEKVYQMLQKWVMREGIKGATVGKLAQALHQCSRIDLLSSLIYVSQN
Nature of the experiment: In vitro RIPK1 kinase activity IC50 assay (ADP-Glo). The note with it: ATP 10 μM; MBP substrate 100 μg/mL; 8 concentration points; read-out: IC50 range of compounds for RIPK1 kinase activity. Type of experiment: biochemical. The gist of the method:
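Human RIPK1 preincubated 15 min at room temperature with compound (8-point 1:5 dilution series, 1% DMSO in kinase buffer D). Reaction then ran 1 h with 10 μM ATP and 100 μg/mL MBP substrate; ADP measured by ADP-Glo luminescence, IC50 from four-parameter nonlinear fit.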

One may read the EC50 as the midpoint of the concentration-response curve. Broadly, the IC50 is the concentration needed to halve the response being measured.

Turning to `CN1C(=O)[C@@H](NC(=O)C(=O)NCCc2cccc(F)c2)COc2ccc(C#CCN3CCC(=O)CC3)cc21` [Example 118, (S)—N^1-(3-fluorophenethyl)-N^2-(5-methyl-4-oxo-7-(3-(4-oxopiperidin-1-yl)prop-1-yn-1-yl)-2,3,4,5-tetrahydrobenzo[b][1,4]oxazepin-3-yl)oxalamide], the EC50 in the experiment on U937 cells is less than 100 nM. Also, the IC50 at RIPK1 kinase is less than 100 nM.

On to `CN1C(=O)[C@@H](NC(=O)C(=O)NCCc2cccc(F)c2)COc2ccc(C#CCN3CCOCC3)cc21` [Example 120, (S)—N^1-(3-fluorophenethyl)-N^2-(5-methyl-7-(3-morpholinoprop-1-yn-1-yl)-4-oxo-2,3,4,5-tetrahydrobenzo[b][1,4]oxazepin-3-yl)oxalamide], for which the half-maximal effective concentration (EC50) in the experiment on U937 cells was less than 100 nM. Besides, the IC50 on RIPK1 kinase was less than 100 nM.

On to `CN1C(=O)[C@@H](NC(=O)C(=O)NCCc2cccc(F)c2)COc2ccc(C#CCN3C(=O)CCC3=O)cc21` [Example 122, (S)—N^1-(7-(3-(2,5-dioxopyrrolidin-1-yl)prop-1-yn-1-yl)-5-methyl-4-oxo-2,3,4,5-tetrahydrobenzo[b][1,4]oxazepin-3-yl)-N^2-(3-fluorophenethyl)oxalamide], for which, in the experiment with U937 cells, the EC50 is less than 100 nM. The IC50 at RIPK1 kinase is less than 100 nM.

As to `CN1C(=O)[C@@H](NC(=O)C(=O)NCCc2cccc(F)c2)COc2ccc(C#CCN3CCNC(=O)C3)cc21` [Example 123, (S)—N^1-(3-fluorophenethyl)-N^2-(5-methyl-4-oxo-7-(3-(3-oxopiperazin-1-yl)prop-1-yn-1-yl)-2,3,4,5-tetrahydrobenzo[b][1,4]oxazepin-3-yl)oxalamide], the EC50 in the experiment with U937 cells is less than 100 nM. The IC50 on RIPK1 kinase is less than 100 nM.

Regarding `C[C@@H](NC(=O)C(=O)N[C@H]1COc2ccc(C#CCN3CC[C@@H](O)C3)cc2N(C)C1=O)c1ccccc1` [Example 128, N^1-((S)-7-(3-((R)-3-hydroxypyrrolidin-1-yl)prop-1-yn-1-yl)-5-methyl-4-oxo-2,3,4,5-tetrahydrobenzo[b][1,4]oxazepin-3-yl)-N^2-((R)-1-phenylethyl)oxalamide], the concentration for a half-maximal effect (EC50) in the experiment on U937 cells is less than 100 nM. Moreover, the IC50 at RIPK1 kinase was less than 100 nM.

For `C[C@@H](NC(=O)C(=O)N[C@H]1COc2ccc(C#CCN3CC[C@H](O)C3)cc2N(C)C1=O)c1ccccc1` [Example 130, N^1-((S)-7-(3-((S)-3-hydroxypyrrolidin-1-yl)prop-1-yn-1-yl)-5-methyl-4-oxo-2,3,4,5-tetrahydrobenzo[b][1,4]oxazepin-3-yl)-N^2-((R)-1-phenylethyl)oxalamide], the EC50 in the experiment with U937 cells was less than 100 nM. In addition, the IC50 on RIPK1 kinase is less than 100 nM.

Regarding `C[C@@H](NC(=O)C(=O)N[C@H]1COc2ccc(C#CC3(O)COC3)cc2N(C)C1=O)c1ccccc1` [Example 132, N^1-((S)-7-((3-hydroxyoxetan-3-yl)ethynyl)-5-methyl-4-oxo-2,3,4,5-tetrahydrobenzo[b][1,4]oxazepin-3-yl)-N^2-((R)-1-phenylethyl)oxalamide], the EC50 with U937 cells is less than 100 nM. In addition, on RIPK1 kinase, the half-maximal inhibitory concentration (IC50) is less than 100 nM.

For the molecule `C[C@@H](NC(=O)C(=O)N[C@H]1COc2ccc(C#CC3CCN(CC#N)CC3)cc2N(C)C1=O)c1ccccc1` [Example 137, N^1-((S)-7-((1-(cyanomethyl)piperidin-4-yl)ethynyl)-5-methyl-4-oxo-2,3,4,5-tetrahydrobenzo[b][1, 4]oxazepin-3-yl)-N^2-((R)-1-phenylethyl)oxalamide], the EC50 in the experiment on U937 cells is less than 100 nM. Besides, the IC50 at RIPK1 kinase was less than 100 nM.

With `C[C@@H](NC(=O)C(=O)N[C@H]1COc2ccc(C#CCN3CCC(O)CC3)cc2N(C)C1=O)c1ccccc1` [Example 138, N^1-((S)-7-(3-(4-hydroxypiperidin-1-yl)prop-1-yn-1-yl)-5-methyl-4-oxo-2,3,4,5-tetrahydrobenzo[b][1,4]oxazepin-3-yl)-N^2-((R)-1-phenylethyl)oxalamide], the EC50 in the experiment on U937 cells was less than 100 nM. Besides, the IC50 on RIPK1 kinase is less than 100 nM.

With `C[C@@H](NC(=O)C(=O)N[C@H]1COc2ccc(C#CCN3CCC(=O)CC3)cc2N(C)C1=O)c1ccccc1` [Example 139, N^1-((S)-5-methyl-4-oxo-7-(3-(4-oxopiperidin-1-yl)prop-1-yn-1-yl)-2,3,4,5-tetrahydrobenzo[b][1, 4]oxazepin-3-yl)-N^2-((R)-1-phenylethyl)oxalamide], the concentration for a half-maximal effect (EC50) in the experiment on U937 cells was less than 100 nM. For the same molecule, the IC50 at RIPK1 kinase was less than 100 nM.

Take `C[C@@H](NC(=O)C(=O)N[C@H]1COc2ccc(C#CCN3CCOCC3)cc2N(C)C1=O)c1ccccc1` [Example 140, N^1-((S)-5-methyl-7-(3-morpholinoprop-1-yn-1-yl)-4-oxo-2,3,4,5-tetrahydrobenzo[b][1,4]oxazepin-3-yl)-N^2-((R)-1-phenylethyl)oxalamide]: the EC50 with U937 cells was less than 100 nM. Moreover, the half-maximal inhibitory concentration (IC50) at RIPK1 kinase was less than 100 nM.

Turning to `C[C@@H](NC(=O)C(=O)N[C@H]1COc2ccc(C#CCN3C(=O)CCC3=O)cc2N(C)C1=O)c1ccccc1` [Example 144, N^1-((S)-7-(3-(2,5-dioxopyrrolidin-1-yl)prop-1-yn-1-yl)-5-methyl-4-oxo-2,3,4,5-tetrahydrobenzo[b][1,4]oxazepin-3-yl)-N^2-((R)-1-phenylethyl)oxalamide], the EC50 with U937 cells was less than 100 nM. In addition, the IC50 on RIPK1 kinase is less than 100 nM.

Take `C[C@@H](NC(=O)C(=O)N[C@H]1COc2ccc(C#CCN3CCNC(=O)C3)cc2N(C)C1=O)c1ccccc1` [Example 145, N^1-((S)-5-methyl-4-oxo-7-(3-(3-oxopiperazin-1-yl)prop-1-yn-1-yl)-2,3,4,5-tetrahydrobenzo[b][1, 4]oxazepin-3-yl)-N^2-((R)-1-phenylethyl)oxalamide]: the EC50 in the experiment with U937 cells was less than 100 nM. Also, the IC50 on RIPK1 kinase is less than 100 nM.

In the case of `C[C@@H](NC(=O)C(=O)N[C@H]1COc2ccc(C#CCN(C)C)cc2N(C)C1=O)c1ccccc1` [Example 146, N^1-((S)-7-(3-(dimethylamino)prop-1-yn-1-yl)-5-methyl-4-oxo-2,3,4,5-tetrahydrobenzo[b][1,4]oxazepin-3-yl)-N^2-((R)-1-phenylethyl)oxalamide], the EC50 in the experiment with U937 cells is less than 100 nM. In addition, the IC50 at RIPK1 kinase was less than 100 nM.

As to `C[C@@H](NC(=O)C(=O)N[C@H]1COc2ccc(C#CC3CN(CC#N)C3)cc2N(C)C1=O)c1ccccc1` [Example 148, N^1-((S)-7-((1-(cyanomethyl)azetidin-3-yl)ethynyl)-5-methyl-4-oxo-2,3,4,5-tetrahydrobenzo[b][1, 4]oxazepin-3-yl)-N^2-((R)-1-phenylethyl)oxalamide], in the experiment with U937 cells, the EC50 was less than 100 nM. The IC50 at RIPK1 kinase was less than 100 nM.

As for `C[C@@H](CNC(=O)C(=O)N[C@H]1COc2ccc(C#CCCO)cc2N(C)C1=O)c1ccccc1` [Example 155, N^1-((S)-7-(4-hydroxybut-1-yn-1-yl)-5-methyl-4-oxo-2,3,4,5-tetrahydrobenzo[b][1,4]oxazepin-3-yl)-N^2-((R)-2-phenylpropyl)oxalamide], the EC50 with U937 cells was less than 100 nM. Moreover, the concentration for half-maximal inhibition (IC50) on RIPK1 kinase is less than 100 nM.

As to `C[C@H](CNC(=O)C(=O)N[C@H]1COc2ccc(C#CCCO)cc2N(C)C1=O)c1ccccc1` [Example 156, N^1-((S)-7-(4-hydroxybut-1-yn-1-yl)-5-methyl-4-oxo-2,3,4,5-tetrahydrobenzo[b][1,4]oxazepin-3-yl)-N^2-((S)-2-phenylpropyl)oxalamide], in the experiment with U937 cells, the EC50 is less than 100 nM. Moreover, at RIPK1 kinase, the IC50 is less than 100 nM.

In the case of `C[C@@H](CNC(=O)C(=O)N[C@H]1COc2ccc(C#CC3(O)COC3)cc2N(C)C1=O)c1ccccc1` [Example 158, N^1-((S)-7-((3-hydroxyoxetan-3-yl)ethynyl)-5-methyl-4-oxo-2,3,4,5-tetrahydrobenzo[b][1,4]oxazepin-3-yl)-N^2-((R)-2-phenylpropyl)oxalamide], the EC50 with U937 cells was less than 100 nM. Also, the IC50 on RIPK1 kinase is less than 100 nM.

Turning to `C[C@@H](CNC(=O)C(=O)N[C@H]1COc2ccc(C#CCN3CCOCC3)cc2N(C)C1=O)c1ccccc1` [Example 159, N^1-((S)-5-methyl-7-(3-morpholinoprop-1-yn-1-yl)-4-oxo-2,3,4,5-tetrahydrobenzo[b][1,4]oxazepin-3-yl)-N^2-((R)-2-phenylpropyl)oxalamide], the EC50 in the experiment with U937 cells is less than 100 nM. Moreover, on RIPK1 kinase, the IC50 is less than 100 nM.

Take `CN1C(=O)C(NC(=O)C(=O)NCCc2cccc(F)c2)CCc2ccc(C#CCCO)cc21` (stereo not shown) [Example 167, N^1-(3-fluorophenethyl)-N^2-(8-(4-hydroxybut-1-yn-1-yl)-1-methyl-2-oxo-2,3,4,5-tetrahydro-1H-benzo[b]azepin-3-yl)oxalamide]: in the experiment on U937 cells, the EC50 was less than 100 nM. The IC50 on RIPK1 kinase was less than 100 nM.
